In the assay the target is T1, Androgen Receptor (AR) (Homo sapiens, UniProt P10275, T878A).
T1 construct: cell based immuno-fluorescence assay using the LNCaP prostate epithelial cell line; endogenous in cells; host or cells: LNCaP clone FGC (ATCC CRL-1740)
T1 sequence (P10275 1-920 T878A): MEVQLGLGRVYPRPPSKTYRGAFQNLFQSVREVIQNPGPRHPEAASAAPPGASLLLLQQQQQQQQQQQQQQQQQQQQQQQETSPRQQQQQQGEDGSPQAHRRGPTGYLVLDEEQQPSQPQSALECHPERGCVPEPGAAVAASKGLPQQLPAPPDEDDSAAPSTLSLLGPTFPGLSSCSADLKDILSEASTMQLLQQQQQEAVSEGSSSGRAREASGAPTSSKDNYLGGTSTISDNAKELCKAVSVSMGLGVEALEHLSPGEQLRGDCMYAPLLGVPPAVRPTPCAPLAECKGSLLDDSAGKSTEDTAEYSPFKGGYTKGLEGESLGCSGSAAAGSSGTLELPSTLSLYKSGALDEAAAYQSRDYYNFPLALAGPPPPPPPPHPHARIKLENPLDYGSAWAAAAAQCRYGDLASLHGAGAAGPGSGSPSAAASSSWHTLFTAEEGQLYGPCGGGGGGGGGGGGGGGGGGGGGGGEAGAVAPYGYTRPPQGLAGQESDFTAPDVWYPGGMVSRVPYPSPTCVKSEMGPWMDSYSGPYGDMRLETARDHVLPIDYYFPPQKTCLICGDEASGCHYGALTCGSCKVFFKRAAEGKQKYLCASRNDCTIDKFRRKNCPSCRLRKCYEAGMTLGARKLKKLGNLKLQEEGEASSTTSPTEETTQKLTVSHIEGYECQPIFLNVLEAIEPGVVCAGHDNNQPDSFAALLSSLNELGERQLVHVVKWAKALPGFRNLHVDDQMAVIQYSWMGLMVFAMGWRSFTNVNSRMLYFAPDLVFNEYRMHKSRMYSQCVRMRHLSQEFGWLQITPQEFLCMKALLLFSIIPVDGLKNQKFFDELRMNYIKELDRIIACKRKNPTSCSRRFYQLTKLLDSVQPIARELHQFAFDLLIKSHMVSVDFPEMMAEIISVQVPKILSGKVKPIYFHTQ
Briefly: LNCaP Androgen Receptor Down-regulation Cell Assay (immunofluorescence end point). Format: cell-based. Particulars: LNCaP prostate carcinoma cells, compound incubation 20-22 hours, 50% reduction of the AR signal; read-out: Androgen Receptor Down-regulation Assay (a) IC50/μM. The method in brief: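 LNCaP cells in medium with 5% charcoal-stripped FBS were plated overnight, then treated with a compound dilution series for 20-22 h at 37° C. After fixation, permeabilisation and immunostaining, AR-associated green fluorescence was quantified by laser-scanning microplate cytometry; AR down-regulation expressed as IC50 from fitted dose-response curves.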
On to `C[C@@H]1CN(c2ccc3nnc(C(F)(F)F)n3n2)CCN1Cc1ccc(F)c(C#N)c1` [Example 569], for which the DC50 came out at 2.7 µM.

With `C[C@H]1CN(c2ccc3nnc(C(F)(F)F)n3n2)CCN1Cc1cccnc1` [Example 570, 6-[(3S)-3-methyl-4-(pyridin-3-ylmethyl)piperazin-1-yl]-3-(trifluoromethyl)[1,2,4]triazolo[4,3-b]pyridazine], the DC50 amounted to 4.5 µM. As for `C[C@H]1CN(c2ccc3nnc(C(F)(F)F)n3n2)CCN1Cc1ccc(C#N)cc1` [Example 571], the figure is 0.96 µM; as for `C[C@H]1CN(c2ccc3nnc(C(F)(F)F)n3n2)CCN1Cc1ccc(F)c(F)c1` [Example 572], 3.4 µM; as for `C[C@H]1CN(c2ccc3nnc(C(F)(F)F)n3n2)CCN1Cc1ccc(F)c(C#N)c1` [Example 575], 2.5 µM.

Turning to `FC(F)(F)c1nnc2ccc(N3CC[C@@H](Oc4cccnc4)C3)nn12` [Example 576, 6-[(3R)-3-(pyridin-3-yloxy)pyrrolidin-1-yl]-3-(trifluoromethyl)[1,2,4]triazolo[4,3-b]pyridazine], the DC50 worked out at 5 µM. Take `FC(F)(F)c1nnc2ccc(N3CC[C@@H](Oc4ccncc4)C3)nn12` [Example 577, 6-[(3R)-3-(pyridin-4-yloxy)pyrrolidin-1-yl]-3-(trifluoromethyl)[1,2,4]triazolo[4,3-b]pyridazine]: the DC50 came out at 5 µM.

`FC(F)(F)c1nnc2ccc(N3CC[C@@H](Oc4ccccn4)C3)nn12` [Example 578, 6-[(3R)-3-(pyridin-2-yloxy)pyrrolidin-1-yl]-3-(trifluoromethyl)[1,2,4]triazolo[4,3-b]pyridazine]: the DC50 was found to be 2.5 µM. As for `FC(F)(F)c1ccc(O[C@@H]2CCN(c3ccc4nnc(C(F)(F)F)n4n3)C2)cc1` [Example 579], the figure is 4.1 µM. Next, `N#Cc1ccc(O[C@@H]2CCN(c3ccc4nnc(C(F)(F)F)n4n3)C2)cc1` [Example 580]: 2 µM.

`Fc1ccc(O[C@@H]2CCN(c3ccc4nnc(C(F)(F)F)n4n3)C2)cc1` [Example 581]: the DC50 was found to be 3.3 µM. For `COc1ccc(O[C@@H]2CCN(c3ccc4nnc(C(F)(F)F)n4n3)C2)cc1` [Example 582], the DC50 was 2.4 µM. Next, `FC(F)(F)c1cccc(O[C@@H]2CCN(c3ccc4nnc(C(F)(F)F)n4n3)C2)c1` [Example 583]: 4.1 µM. Next, `N#Cc1cccc(O[C@@H]2CCN(c3ccc4nnc(C(F)(F)F)n4n3)C2)c1` [Example 584]: 2.8 µM; `Fc1cccc(O[C@@H]2CCN(c3ccc4nnc(C(F)(F)F)n4n3)C2)c1` [Example 585]: 1.5 µM. As for `COc1cccc(O[C@@H]2CCN(c3ccc4nnc(C(F)(F)F)n4n3)C2)c1` [Example 586], the figure is 2.1 µM; as for `FC(F)(F)c1nnc2ccc(N3CC[C@H](Oc4cccnc4)C3)nn12` [Example 587, 6-[(3S)-3-(pyridin-3-yloxy)pyrrolidin-1-yl]-3-(trifluoromethyl)[1,2,4]triazolo[4,3-b]pyridazine], over 17 µM. In the case of `FC(F)(F)c1nnc2ccc(N3CC[C@H](Oc4ccncc4)C3)nn12` [Example 588, 6-[(3S)-3-(pyridin-4-yloxy)pyrrolidin-1-yl]-3-(trifluoromethyl)[1,2,4]triazolo[4,3-b]pyridazine], the DC50 is 5.3 µM. On to `FC(F)(F)c1nnc2ccc(N3CC[C@H](Oc4ccccn4)C3)nn12` [Example 589, 6-[(3S)-3-(pyridin-2-yloxy)pyrrolidin-1-yl]-3-(trifluoromethyl)[1,2,4]triazolo[4,3-b]pyridazine], for which the DC50 was 4.8 µM. Next, `N#Cc1ccc(O[C@H]2CCN(c3ccc4nnc(C(F)(F)F)n4n3)C2)cc1` [Example 591]: 20 µM. Turning to `FC(F)(F)c1ccc(O[C@H]2CCN(c3ccc4nnc(C(F)(F)F)n4n3)C2)cc1` [Example 592], the DC50 worked out at 9.6 µM. Next, `C[C@H]1CN(Cc2cccnc2)CCN1c1ccc2nnc(C(F)(F)F)n2n1` [Example 593, 6-[(2S)-2-methyl-4-(pyridin-3-ylmethyl)piperazin-1-yl]-3-(trifluoromethyl)[1,2,4]triazolo[4,3-b]pyridazine]: 7.2 µM; `C[C@H]1CN(Cc2ccc(F)c(F)c2)CCN1c1ccc2nnc(C(F)(F)F)n2n1` [Example 595]: 6.8 µM; `C[C@H]1CN(Cc2cc(F)cc(F)c2)CCN1c1ccc2nnc(C(F)(F)F)n2n1` [Example 596]: 4.2 µM.

For `C[C@H]1CN(Cc2ccc(F)cc2)CCN1c1ccc2nnc(C(F)(F)F)n2n1` [Example 597], the DC50 was found to be 2.9 µM. As for `C[C@H]1CN(Cc2ccc(F)c(C#N)c2)CCN1c1ccc2nnc(C(F)(F)F)n2n1` [Example 598], the figure is 4.2 µM. Next, `C[C@@H]1CN(Cc2cccnc2)CCN1c1ccc2nnc(C(F)(F)F)n2n1` [Example 599, 6-[(2R)-2-methyl-4-(pyridin-3-ylmethyl)piperazin-1-yl]-3-(trifluoromethyl)[1,2,4]triazolo[4,3-b]pyridazine]: 5.8 µM. As for `C[C@@H]1CN(Cc2ccc(C#N)cc2)CCN1c1ccc2nnc(C(F)(F)F)n2n1` [Example 600], the figure is 0.85 µM; as for `C[C@@H]1CN(Cc2ccc(F)c(F)c2)CCN1c1ccc2nnc(C(F)(F)F)n2n1` [Example 601], 2.2 µM. Turning to `C[C@@H]1CN(Cc2cc(F)cc(F)c2)CCN1c1ccc2nnc(C(F)(F)F)n2n1` [Example 602], the DC50 is 1.6 µM. For `C[C@@H]1CN(Cc2ccc(F)cc2)CCN1c1ccc2nnc(C(F)(F)F)n2n1` [Example 603], the DC50 stood at 3.5 µM.

For `C[C@@H]1CN(Cc2ccc(F)c(C#N)c2)CCN1c1ccc2nnc(C(F)(F)F)n2n1` [Example 604], the DC50 turned out to be 1.7 µM. Next, `FC(F)(F)c1nnc2ccc(N3CC=C(c4cccnc4)CC3)nn12` [Example 605, 1′-[3-(trifluoromethyl)[1,2,4]triazolo[4,3-b]pyridazin-6-yl]-1′,2′,3′,6′-tetrahydro-3,4′-bipyridine]: 5 µM; `Fc1cnccc1C1=CCN(c2ccc3nnc(C(F)(F)F)n3n2)CC1` [Example 606]: 2.7 µM; `Fc1cncc(C2=CCN(c3ccc4nnc(C(F)(F)F)n4n3)CC2)c1` [Example 607]: 7.4 µM. As for `CCOC(=O)c1cncc(C2=CCN(c3ccc4nnc(C(F)(F)F)n4n3)CC2)c1` [Example 608], the figure is 2.7 µM; as for `COc1ncc(C2=CCN(c3ccc4nnc(C(F)(F)F)n4n3)CC2)cc1F` [Example 609], 6.6 µM. As to `FC(F)(F)c1nnc2ccc(N3CCC(c4cccnc4)CC3)nn12` [Example 610, 6-(4-pyridin-3-ylpiperidin-1-yl)-3-(trifluoromethyl)[1,2,4]triazolo[4,3-b]pyridazine], the DC50 was determined as 3.2 µM. As to `Fc1cnccc1C1CCN(c2ccc3nnc(C(F)(F)F)n3n2)CC1` [Example 611], the DC50 was 1.6 µM. `Fc1cncc(C2CCN(c3ccc4nnc(C(F)(F)F)n4n3)CC2)c1` [Example 612]: the DC50 was over 13 µM. Next, `COc1ncc(C2CCN(c3ccc4nnc(C(F)(F)F)n4n3)CC2)cc1F` [Example 614]: over 12 µM. As for `Nc1ccc(C2CCN(c3ccc4nnc(C(F)(F)F)n4n3)CC2)cc1` [Example 615, 4-[1-[3-(trifluoromethyl)[1,2,4]triazolo[4,3-b]pyridazin-6-yl]piperidin-4-yl]aniline], the figure is 0.88 µM; as for `Nc1cccc(C2CCN(c3ccc4nnc(C(F)(F)F)n4n3)CC2)c1` [Example 616, 3-[1-[3-(trifluoromethyl)[1,2,4]triazolo[4,3-b]pyridazin-6-yl]piperidin-4-yl]aniline], 1.7 µM; as for `FC(F)(F)c1nnc2ccc(N3CCC(Oc4cncc(Cl)c4)CC3)nn12` [Example 617], 4.3 µM. As for `FC(F)(F)c1nnc2ccc(N3CCC(Oc4ccc(Cl)cn4)CC3)nn12` [Example 618], the figure is over 4 µM; as for `FC(F)(F)c1nnc2ccc(N3CCC(Oc4ccncn4)CC3)nn12` [Example 619], 4.5 µM. Take `FC(F)(F)c1ccnc(OC2CCN(c3ccc4nnc(C(F)(F)F)n4n3)CC2)c1` [Example 621]: the DC50 came to 2.3 µM. As to `Cc1ccnc(OC2CCN(c3ccc4nnc(C(F)(F)F)n4n3)CC2)n1` [Example 622], the DC50 came out at 7.4 µM. For `N#Cc1cccc(OC2CCN(c3ccc4nnc(C(F)(F)F)n4n3)CC2)c1` [Example 623], the DC50 amounted to 0.89 µM.

These data come from patent US8003649B2 (AstraZeneca AB, priority 2007, dated 2011).
